{"source": "patent US20040115160A1", "about": "“Quaternary ammonium esters for disinfection and preservation” (priority 2002, published 2004)", "format_in_all_cases": "cell-based", "key": {"[1]": {"tested_on": "Candida albicans (ATCC 10231)", "assay": "Stand-alone biocidal test without organic soil", "conditions": "Candida albicans, read-out: Stand-alone biocidal result (microbial log reduction) C. albicans", "method": "(§1) A test was conducted to study the microbiocidal efficacy of a solution containing a quaternary ammonium ester of the present invention employing borate buffered saline (BBS). The antimicrobial efficacy of each of the various compositions for the chemical disinfection of contact lenses was evaluated. Microbial challenge inoculums were prepared using Pseudomonas aeruginosa (ATCC 9027), Staphylococcus aureus (ATCC 6538), Serratia marcescens (ATCC 13880), Candida albicans (ATCC 10231) and Fusarium solani (ATCC 36031). The test organisms were cultured on appropriate agar and the cultures were harvested using sterile DPBST (Dulbecco's Phosphate Buffered Saline plus 0.05 percent weight/volume polysorbate 80) or a suitable diluent and transferred to a suitable vessel. Spore suspensions were filtered through sterile glass wool to remove hyphal fragments. Serratia marcescens, as appropriate, was filtered through a 1.2 mμ filter to clarify the suspension. After harvesting, the suspension was centrifuged at no more than 5000×g for a maximum of 30 minutes at 20 to 25° C. The supernatant was poured off and resuspended in DPBST or other suitable diluent. The suspension was centrifuged a second time, and resuspended in DPBST or other suitable diluent. All challenge bacterial and fungal cell suspensions were adjusted with DPBST or other suitable diluent to 1×10^7 to 1×10^8 cfu/ml. The appropriate cell concentration may be estimated by measuring the turbidity of the suspension, for example, using a spectrophotometer at a preselected wavelength, for example 490 nm. One tube was prepared containing a minimum of 10 ml of test solution per challenge organism. Each tube of the solution to be tested was inoculated with a suspension of the test organism sufficient to provide a final count of 1×10^5 to 1×10^6 cfu/ml, the volume of the inoculum not exceeding 1 percent of the sample volume. Dispersion of the inoculum was ensured by vortexing the sample for at least 15 seconds. The inoculated product was stored at 10 to 25° C. Aliquots in the amount of 1.0 ml were taken of the inoculated product for determination of viable counts after certain time periods of disinfection. The time points for the bacteria were, for example, 1, 2, 3 and 4 hours when the proposed regimen soaking time was four hours. Yeast and mold were tested at an additional timepoint of 16 hours (4 times the regimen time). The suspension was mixed well by vortexing vigorously for at least 5 seconds. The 1.0 ml aliquots removed at the specified time intervals were subjected to a suitable series of decimal dilutions in validated neutralizing media. The suspensions were mixed vigorously and incubated for a suitable period of time to allow for neutralization of the microbial agent at room temperature. The viable count of organisms was determined in appropriate dilutions by preparation of triplicate plates of trypticase soy (TSA) agar for bacteria and Sabouraud dextrose agar (SDA) for mold and yeast. The bacterial recovery plates were incubated at 30 to 35° C. for two to four days. The yeast was incubated at 20 to 30° C. for two to four days and mold recovery plates were incubated at 20 to 25° C. for three to seven days. The average number of colony forming units was determined on countable plates. Countable plates refer to 30 to 300 cfu/plates for bacteria and yeast, and 8 to 80 cfu/plate for mold except when colonies are observed only for the 10^0 or 10^−1 dilution plates. The microbial reduction was then calculated at the specified time points. […] Following inoculation in a validated neutralizing broth and incubation for an appropriate period of time, the inoculum control must be between 1.0×10^5 to 1.0×10^6 cfu/ml. […]"}, "[2]": {"tested_on": "Serratia marcescens (ATCC 13880)", "assay": "Stand-alone biocidal test without organic soil", "conditions": "25 ppm in BBS, without organic soil", "method": "as §1"}, "[3]": {"tested_on": "cells seeded in Millicell HA 13 mm inserts", "assay": "Sodium fluorescein permeability assay", "conditions": "20 min", "method": "A 0.5 ml cell suspension containing 2×10^5 cells was seeded in Millicell HA 13 mm inserts (Millipore, Bedford, Mass.). The inserts were transferred into 24 well plates containing 0.5 ml of minimum essential medium (MEM) (BioWhittaker, Walkersville, Md.) per well. The plates were then incubated at 37° C. with 5 percent carbon dioxide for six days. Fresh media was added to the wells on days 2 through 6. On day 6 the inserts were used for the permeability assay.\nEach insert was gently rinsed three times with 1 ml of Hanks' balanced salt solution (HBSS) using a 10 ml syringe, without a needle. An amount of 0.5 ml of test solution was added to separate inserts that had been placed in a fresh 24 well plate. Triplicate inserts were used for each test solution. The inserts were incubated in a 100 percent humidified chamber at 37 degrees Celsius for twenty minutes. Each series of triplicate samples was handled sequentially to allow exact timing of the treatment and subsequent steps. After incubation, each insert was individually rinsed five times with 1 ml HBSS using a 10 ml syringe without a needle, and then placed in a fresh 24 well plate containing 0.5 ml HBSS in each well. To each insert was added 0.5 ml of sodium fluorescein (3 mg/100 ml in HBSS). The inserts were incubated at room temperature for twenty minutes, removed from the wells, and the amount of sodium fluorescein was measured using a fluorometer at […]. Triplicate negative controls (HBSS solution) and positive controls consisting of sodium dodecyl sulphate (SDS) in water were included during these evaluations. Sodium fluorescein permeability assay results for composition numbers 1 and 14 are summarized below in Table 4."}}, "note": "Like-named read-outs stand apart in the source and are kept apart here."}
{"smiles": "CCCCCCCCCCCCCC(=O)OCCC[N+](C)(C)Cc1ccccc1", "note": "[Compound 1, N-myristoyloxypropyl-N-benzyl-N,N-dimethylammonium chloride]", "values": [{"measurement": "log reduction at 25 ppm", "setting": "[1]; ATCC10231, 1 h", "value": 3.6}, {"measurement": "log reduction at 25 ppm", "setting": "[1]; ATCC10231, 4 h", "value": "> 4.8"}, {"measurement": "Stand-alone biocidal result (microbial log reduction) S. marcescens", "setting": "[2]; 1 hr.", "value": 4.8}, {"measurement": "Stand-alone biocidal result (microbial log reduction) S. marcescens", "setting": "[2]; 4 hr.", "value": ">4.8"}, {"measurement": "Sodium fluorescein permeability, Fluorescence Units", "setting": "[3]; 5 ppm", "value": 71, "unit": "Fluorescence Units"}, {"measurement": "Sodium fluorescein permeability, Fluorescence Units", "setting": "[3]; 10 ppm", "value": 71, "unit": "Fluorescence Units"}, {"measurement": "Sodium fluorescein permeability, Fluorescence Units", "setting": "[3]; 15 ppm", "value": 77, "unit": "Fluorescence Units"}, {"measurement": "Sodium fluorescein permeability, Fluorescence Units", "setting": "[3]; 25 ppm", "value": 76, "unit": "Fluorescence Units"}, {"measurement": "Sodium fluorescein permeability, Fluorescence Units", "setting": "[3]; 100 ppm", "value": 554, "unit": "Fluorescence Units"}]}
